Measured values from patent US20240059677A1, “SUBSTITUTED PYRIMIDINE DERIVATIVES AS NICOTINIC ACETYLCHOLINESTERASE RECEPTOR ALPHA 6 MODULATOR” (priority 2020, published 2024).
Marks after values point to notes of the source that are not given here.

biological target: T1, human nAChRα6-α3 chimera, in addition to β2 and β3^V273S subunits (Homo sapiens, UniProt P32297+Q15825); experiment: fluorescence-based calcium assay: inhibition of nicotine stimulated nAChRα6 activity (FLIPR); settings: HEK cell line stably expressing the receptor; 10 min pre-incubation, nicotine EC80; 10-point curve, duplicate wells; read-out: IC50
T1 construct: expressed in transfected cells
T1 sequence (Q05901 25-458 V273S): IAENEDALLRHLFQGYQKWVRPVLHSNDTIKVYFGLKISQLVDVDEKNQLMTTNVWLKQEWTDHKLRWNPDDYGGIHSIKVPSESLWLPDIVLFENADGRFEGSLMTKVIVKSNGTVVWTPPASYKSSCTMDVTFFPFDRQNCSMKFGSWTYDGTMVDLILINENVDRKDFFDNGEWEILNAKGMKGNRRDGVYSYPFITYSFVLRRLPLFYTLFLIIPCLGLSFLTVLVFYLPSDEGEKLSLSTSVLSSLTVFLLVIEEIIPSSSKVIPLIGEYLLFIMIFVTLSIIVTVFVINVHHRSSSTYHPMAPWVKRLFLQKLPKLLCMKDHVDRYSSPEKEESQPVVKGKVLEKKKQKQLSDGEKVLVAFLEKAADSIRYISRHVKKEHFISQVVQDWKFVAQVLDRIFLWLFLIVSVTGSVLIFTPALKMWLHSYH
T1 sequence (P17787 26-502, stated change not applied, further chain): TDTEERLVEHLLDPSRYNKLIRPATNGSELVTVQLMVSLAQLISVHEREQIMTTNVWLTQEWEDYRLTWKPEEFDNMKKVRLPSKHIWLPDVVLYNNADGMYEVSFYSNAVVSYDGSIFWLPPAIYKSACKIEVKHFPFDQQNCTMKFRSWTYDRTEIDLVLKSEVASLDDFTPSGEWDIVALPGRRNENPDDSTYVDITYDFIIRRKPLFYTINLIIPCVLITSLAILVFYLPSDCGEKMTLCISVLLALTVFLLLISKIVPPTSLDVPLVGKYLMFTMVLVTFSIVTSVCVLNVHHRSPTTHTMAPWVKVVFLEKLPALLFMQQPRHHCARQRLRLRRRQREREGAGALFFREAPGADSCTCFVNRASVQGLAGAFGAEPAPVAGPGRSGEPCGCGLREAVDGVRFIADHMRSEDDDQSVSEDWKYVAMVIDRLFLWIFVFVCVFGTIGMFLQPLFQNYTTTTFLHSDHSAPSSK
T1 sequence (Q15825+P32297 fused with the stated changes): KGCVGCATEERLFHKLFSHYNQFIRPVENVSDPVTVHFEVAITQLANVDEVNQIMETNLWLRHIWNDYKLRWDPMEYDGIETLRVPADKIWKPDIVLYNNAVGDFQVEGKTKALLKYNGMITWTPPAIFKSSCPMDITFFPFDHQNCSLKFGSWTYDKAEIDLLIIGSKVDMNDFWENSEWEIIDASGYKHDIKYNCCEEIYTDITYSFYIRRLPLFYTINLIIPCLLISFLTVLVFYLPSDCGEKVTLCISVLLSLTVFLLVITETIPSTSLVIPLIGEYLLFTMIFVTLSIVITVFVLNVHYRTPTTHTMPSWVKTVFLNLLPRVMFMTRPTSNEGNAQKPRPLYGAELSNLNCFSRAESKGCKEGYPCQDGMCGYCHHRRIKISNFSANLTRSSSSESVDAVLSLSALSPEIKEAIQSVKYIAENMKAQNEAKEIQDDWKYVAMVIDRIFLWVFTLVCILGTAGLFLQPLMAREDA
Outline: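 HEK cells stably expressing the human α6-α3 chimera with β2 and β3^V273S were loaded with calcium dye at 30° C. Compounds were pre-incubated for 10 min before nicotine at EC80, and the fluorescence change was read on a FLIPR. Ten-point half-log concentration-response, duplicate wells.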

SMILES | IC50 [µM]
CCN1CCC[C@H](Nc2ncc(-c3ccc(F)cc3F)c(C)n2)C1.O=C(O)/C=C/C(=O)O (single isomer, unassigned) [Example 78b] | 0.06
Cc1nc(NC[C@H]2CCCN2C)ncc1-c1ccc(F)cc1F [Example 24b, (R)-5-(2,4-difluorophenyl)-4-methyl-N-((1-methylpyrrolidin-2-yl)methyl) pyrimidin-2-amine] | 0.005
CC(C)N1CCC(Nc2ncc(-c3ccc(F)cc3F)c(C#N)n2)CC1 [Example 65, 5-(2,4-difluorophenyl)-2-((1-isopropylpiperidin-4-yl)amino)pyrimidine-4-carbonitrile] | 0.084
Cc1nc(NC[C@@H]2CCCN2)ncc1-c1ccc(F)cc1F [Example 94b, (S)-5-(2,4-difluorophenyl)-4-methyl-N-(pyrrolidin-2-ylmethyl)pyrimidin-2-amine] | 0.005
O=C(O)/C=C/C(=O)O.[2H]C([2H])([2H])N1CCC[C@@H]1CNc1ncc(-c2ccc(C(F)(F)F)cc2F)c(C)n1 [Example 117, (R)-5-(2-fluoro-4-(trifluoromethyl)phenyl)-4-methyl-N-((1-(trideuteriomethyl)pyrrolidin-2-yl)methyl)pyrimidin-2-amine] | 0.025
O=C(O)/C=C/C(=O)O.[2H]C([2H])([2H])N1CCC[C@H]1CNc1ncc(-c2ccc(C(F)(F)F)cc2F)c(C)n1 [Example 118, (S)-5-(2-fluoro-4-(trifluoromethyl)phenyl)-4-methyl-N-((1-(trideuteriomethyl)pyrrolidin-2-yl)methyl)pyrimidin-2-amine] | 0.075
Cc1nc(N[C@H]2CN3CCC2CC3)ncc1-c1ccc(C(F)(F)F)cc1F [Example 119, (R)—N-(5-(2-fluoro-4-(trifluoromethyl)phenyl)-4-methyl-pyrimidin-2-yl) quinuclidin-3-amine] | 0.155
Cc1nc(N[C@@H]2CN3CCC2CC3)ncc1-c1ccc(C(F)(F)F)cc1F [Example 120, (S)—N-(5-(2-fluoro-4-(trifluoromethyl)phenyl)-4-methyl-pyrimidin-2-yl) quinuclidin-3-amine] | 0.179
Cc1nc(N[C@H]2C[C@H]3CC[C@@H](C2)N3)ncc1-c1ccc(C(F)(F)F)cc1F [Example 121, (1R,3s,5S)—N-(5-(2-fluoro-4-(trifluoromethyl)phenyl)-4-methyl-pyrimidin-2-yl)-8-azabicyclo[3.2.1]octan-3-amine] | 0.191
Cc1nc(NC2CC3(CNC3)C2)ncc1-c1ccc(C(F)(F)F)cc1F [Example 122, N-(5-(2-fluoro-4-(trifluoromethyl)phenyl)-4-methyl-pyrimidin-2-yl)-2-azaspiro[3.3]heptan-6-amine] | 0.039
Cc1nc(NC2CC23CCNCC3)ncc1-c1ccc(C(F)(F)F)cc1F (stereo not drawn) [Example 123, N-(5-(2-fluoro-4-(trifluoromethyl)phenyl)-4-methyl-pyrimidin-2-yl)-6-azaspiro[2.5]octan-1-amine] | 0.15
Cc1nc(N[C@H]2CCNC[C@@H]2F)ncc1-c1ccc(C(F)(F)F)cc1F [Example 124, 5-(2-fluoro-4-(trifluoromethyl)phenyl)-N-((3S,4S)-3-fluoropiperidin-4-yl)-4-methyl-pyrimidin-2-amine] | 0.903
Cc1nc(N[C@H]2CCC[C@H](N)C2)ncc1-c1ccc(C(F)(F)F)cc1F [Example 125, (1S,3S)—N^1-(5-(2-fluoro-4-(trifluoromethyl)phenyl)-4-methyl-pyrimidin-2-yl)cyclohexane-1,3-diamine] | 0.223
Cc1nc(NC2CC(C)(C)NC(C)(C)C2)ncc1-c1ccc(C(F)(F)F)cc1F [Example 126, 5-(2-fluoro-4-(trifluoromethyl)phenyl)-4-methyl-N-(2,2,6,6-tetramethylpiperidin-4-yl)pyrimidin-2-amine] | 0.259
Cc1nc(NC[C@H]2CCCNC2)ncc1-c1ccc(C(F)(F)F)cc1F [Example 127, (S)-5-(2-fluoro-4-(trifluoromethyl)phenyl)-4-methyl-N-(piperidin-3-ylmethyl)pyrimidin-2-amine] | 0.119
Cc1nc(NC[C@]2(C)CCCN2)ncc1-c1ccc(C(F)(F)F)cc1F [Example 134, (S)-5-(2-fluoro-4-(trifluoromethyl)phenyl)-4-methyl-N-((2-methyl-pyrrolidin-2-yl)methyl)pyrimidin-2-amine] | 0.101
Cc1nc(NC[C@@]2(C)CCCN2)ncc1-c1ccc(C(F)(F)F)cc1F [Example 135, (R)-5-(2-fluoro-4-(trifluoromethyl)phenyl)-4-methyl-N-((2-methyl-pyrrolidin-2-yl)methyl)pyrimidin-2-amine] | 0.07
Cc1nc(NC(=O)[C@H]2CCCN2C)ncc1-c1ccc(C(F)(F)F)cc1F [Example 139, (R)—N-(5-(2-fluoro-4-(trifluoromethyl)phenyl)-4-methyl-pyrimidin-2-yl)-1-methylpyrrolidine-2-carboxamide] | 0.086
Cc1nc(NC(=O)[C@@H]2CCCN2C)ncc1-c1ccc(C(F)(F)F)cc1F [Example 140, (S)—N-(5-(2-fluoro-4-(trifluoromethyl)phenyl)-4-methyl-pyrimidin-2-yl)-1-methylpyrrolidine-2-carboxamide] | 0.079

same assay, conditions: IC50 (μM), HEK cell line stably expressing the receptor; 10 min pre-incubation, nicotine EC80; 10-point curve, duplicate wells

SMILES | IC50 [µM]
Cc1nc(N[C@H]2CCCNC2)ncc1-c1ccc(C(F)(F)F)cc1F [Example 116, (S)-5-(2-fluoro-4-(trifluoromethyl)phenyl)-4-methyl-N-(3-piperidinyl) pyrimidin-2-amine] | 0.127
Cc1nc(N[C@@H]2CCCNC2)ncc1-c1ccc(C(F)(F)F)cc1F [Example 128, (R)-5-(2-fluoro-4-(trifluoromethyl)phenyl)-4-methyl-N-(piperidin-3-yl) pyrimidin-2-amine] | 0.18
Cc1nc(NC[C@]2(C)CCCN2C)ncc1-c1ccc(C(F)(F)F)cc1F [Example 136, (S)—N-((1,2-dimethylpyrrolidin-2-yl)methyl)-5-(2-fluoro-4-(trifluoromethyl)phenyl)-4-methyl-pyrimidin-2-amine] | 0.096
Cc1nc(NC[C@@]2(C)CCCN2C)ncc1-c1ccc(C(F)(F)F)cc1F [Example 137, (R)—N-((1,2-dimethylpyrrolidin-2-yl)methyl)-5-(2-fluoro-4-(trifluoromethyl)phenyl)-4-methyl-pyrimidin-2-amine] | 0.11

system: tremulous jaw movements induced by tacrine in male C57BL/6J mice; experiment: tacrine-induced tremulous jaw movements, mice; type: in vivo; settings: mouse; 10 mg/kg p.o.; tacrine 5 mg/kg i.p.; n=10/group; tremulous jaw movements relative to vehicle (100%)
Protocol: (§1) Resting tremor is one of the classic symptoms of Parkinson's disease. These characteristic tremors can be modelled pharmacologically in preclinical models using cholinomimetics such as the acetylcholine esterase inhibitor, tacrine (5 mg/kg, i.p.) (Salamone et al, Prog Neurobiol 56: 591-611 1998) to induce tremulous jaw movement behaviours. These tremulous jaw movements are thought to arise from an imbalance between cholinergic and dopaminergic neurotransmission and are thought to mimic the imbalances in neurotransmission resulting from the dopamine loss seen in Parkinson's disease (Aosaki et al, Geriatr Gerontol Int 10: s148-s157 2010). These tremors can be reversed by agents increasing the dopamine tone, such as dopamine agonists (Salamone et al, Behav Brain Res 156: 173-179 2005).
The objective of these studies was to evaluate the effects of oral administration of Example Compounds on tremulous jaw movements induced by tacrine in male C57BL/6J mice or Sprague-Dawley rats. Animals were administered vehicle (0.5% methylcellulose, p.o.) or Example Compound (across a range of doses; 10 mg/kg, p.o. data shown) 15 to 60 minutes prior to behavioural testing (n=10/group). Tacrine (5 mg/kg, i.p.) was administered to all animals immediately before behavioural assessment commenced. For each animal the latency to the first tremulous jaw movement and the total duration of the tremulous jaw movements post tacrine administration were recorded.
illustrative data shown is percentage attenuation of tacrine-induced tremulous jaw movements relative to vehicle (100%). Each compound shown was tested at 10 mg/kg p.o.
(§2) Statistical significance was assessed using an unpaired student's t-test vs vehicle * p<0.05, ***p<0.001.

SMILES | % Decrease from vehicle or percentage relative to vehicle (100%), (mean ± SEM)
CCN1CCC[C@H](Nc2ncc(-c3ccc(F)cc3F)c(C)n2)C1.O=C(O)/C=C/C(=O)O (single isomer, unassigned) [Example 78b] | 23.8 ± 7.7*** %
Cc1nc(NC[C@H]2CCCN2C)ncc1-c1ccc(F)cc1F [Example 24b, (R)-5-(2,4-difluorophenyl)-4-methyl-N-((1-methylpyrrolidin-2-yl)methyl) pyrimidin-2-amine] | 23.9 ± 3.8*** %
Cc1nc(NC[C@@H]2CCCN2)ncc1-c1ccc(F)cc1F [Example 94b, (S)-5-(2,4-difluorophenyl)-4-methyl-N-(pyrrolidin-2-ylmethyl)pyrimidin-2-amine] | 79.9 ± 7.2%

system: tremulous jaw movements induced by tacrine in Sprague-Dawley rats; experiment: tacrine-induced tremulous jaw movements, rats; type: in vivo; settings: rat; 10 mg/kg p.o.; tacrine 5 mg/kg i.p.; n=10/group; tremulous jaw movements relative to vehicle (100%)
Protocol: as §1
The objective of these studies was to evaluate the effects of oral administration of Example Compounds on tremulous jaw movements induced by tacrine in male C57BL/6J mice or Sprague-Dawley rats. […] For each animal the latency to the first tremulous jaw movement and the total duration of the tremulous jaw movements post tacrine administration were recorded. […]
as §2

SMILES | % Decrease from vehicle or percentage relative to vehicle (100%), (mean ± SEM)
CC(C)N1CCC(Nc2ncc(-c3ccc(F)cc3F)c(C#N)n2)CC1 [Example 65, 5-(2,4-difluorophenyl)-2-((1-isopropylpiperidin-4-yl)amino)pyrimidine-4-carbonitrile] | 30.0 ± 12.8* %
